What all share (type): cell-based
For experiment [1], the system named is Helicobacter pylori SS1 strain, TN2GF4 strain, ATCC43579 strain, NCTC11637 strain, TY281 strain, TY1345 strain. As to the kind of experiment: Proliferation inhibitory effect (in vitro), static culture 3 days, colony count. The following applies: menaquinone (MK-4) 100 μg/mL added with fatty acid. The procedure: Helicobacter pylori SS1 strain, TN2GF4 strain, ATCC43579 strain, NCTC11637 strain, TY281 strain, TY1345 strain were each inoculated to a 6-well plate containing 3 mL of a liquid medium (Brucella broth added with 10% FCS), and fatty acid (200 μM or 1000 μM) and menaquinone (MK-4) 100 μg/mL were added. After static culture for 3 days at temperature 37° C., microaerobic conditions (5% 02, 10% 002, 85% N2), the culture medium was applied on a Helicobacter agar plate, cultured for 3 days and the resulting colonies were counted (FIG. 1-1 A: SS1 strain, FIG. 1-2 B: TN2GF4 strain, FIG. 1-3 C: ATCC43579 strain, FIG. 1-4 D: NCTC11637 strain, FIG. 1-5 E: TY281 strain, FIG. 1-6 F: TY1345 strain. Item C: control (no addition), Item 1: HYA addition, Item 2: HYA and menaquinone addition, Item 3: linoleic acid addition, Item 4: linoleic acid and menaquinone addition).

For experiment [2], the system named is Helicobacter pylori SS1 strain, TN2GF4 strain, TK1029 strain, RC-1 strain. Put plainly: Proliferation inhibitory effect (in vitro) of low concentration fatty acid, shaking culture 24 hr, colony count. To be noted: menaquinone (MK-4) 100 μg/mL added with fatty acid 20 μM. On the procedure: Helicobacter pylori SS1 strain, TN2GF4 strain, TK1029 strain, RC-1 strain were each inoculated to a 6-well plate containing 2 mL of a liquid medium (BHI added with 5% FCS), and fatty acid (20 μM) and menaquinone (MK-4) 100 μg/mL were added. After shaking culture for 24 hr at temperature 37° C., microaerobic conditions (5% 02, 10% CO2, 85% N2), the culture medium was applied on a Helicobacter agar plate, cultured for 3 days and the resulting colonies were counted (FIG. 2-1 A: SS1 strain, FIG. 2-2 B: TN2GF4 strain, FIG. 2-3 C: TK1029 strain, FIG. 2-4 D: RC-1 strain. Item 1: control (menaquinone no addition), Item 2: control (menaquinone 100 μg/mL addition), Item 3: HYA 20 μM (menaquinone no addition), Item 4: HYA 20 μM (menaquinone 100 μg/mL addition), Item 5: linoleic acid 20 μM (menaquinone no addition), Item 6: linoleic acid 20 μM (menaquinone 100 μg/mL addition). *, P<0.0001 vs. Control (ordinary one-way ANOVA)).

Experiment [3] concerns Campylobacter jejuni ATCC33560 strain. Put plainly: Proliferation inhibitory effect (in vitro) on Campylobacter jejuni, absorbance and colony count. The following applies: 100, 200, 400 μM, 24 hr; concentration dependent; strong compared to linoleic acid.
For experiment [4], the system named is Campylobacter coli ATCC33559 strain. Put plainly: Proliferation inhibitory effect (in vitro) on Campylobacter coli, absorbance and colony count. To be noted: 100, 200, 400 μM, 24 hr; concentration dependent; strong compared to linoleic acid.
Experiment [5] deals with Helicobacter pylori TK1029 strain. Put plainly: Proliferation inhibitory effect (in vitro) by ED50 measurement, viable count. The following applies: BHI 2% FCS, viable count; for ED50 value, 15 hr later: 15 hr shaking culture; for ED50 value, 25 hr later: 25 hr shaking culture. The procedure:
Helicobacter pylori TK1029 strain (clinical isolate) was cultured in Brucella broth containing 10% FCS and 1×10^6 CFU of bacteria were respectively added to 3 mL of Brain-Heart Infusion Broth (BHI) media (previously added with free fatty acid (stearic acid, oleic acid, linoleic acid, ricinoleic acid, HYA) at 0, 0.5, 5, 50, 500 μg/mL) containing 2% FCS in a 6-well plate. Shaking culture was performed under conditions of temperature 37° C., humidity 100%, microaerobic (5% 02, 10% CO2, 85% N2), the culture medium (0.1 mL) from each well was applied to NISSUI plate, Helicobacter agar medium 15 hr and 25 hr later, and the number of colonies formed after microaerobic culture for 3 days was counted.

The source of these data is patent publication US12357601B2, “Composition for inhibiting growth of bacterium having menaquinone synthesis pathway through futalosine or futalosine derivative” (NOSTER INC., priority 2017, dated 2025).

The structures appear in SMILES notation. Converted amounts (≈) assume the structure as drawn.

As to `CC(C)=CCC/C(C)=C/CC/C(C)=C/CC/C(C)=C/CC1=C(C)C(=O)c2ccccc2C1=O` [menaquinone (MK-4), menaquinone], the “effect of menaquinone addition on inhibition of proliferation by fatty acid” value in experiment [1] and in experiment [2] was “mitigated inhibition of proliferation” throughout.

For the molecule `CC/C=C\C/C=C\CC(O)CCCCCCCCC(=O)O` (stereo not drawn) [αHYA, 10-hydroxy-cis-12,cis-15-octadecadienoic acid], in experiment [3], the “proliferation of Campylobacter jejuni ATCC33560 strain” value is “inhibited proliferation”. For the same molecule, in experiment [4], the “proliferation of Campylobacter coli ATCC33559 strain” value was “inhibited proliferation”.

Take `CCCCC/C=C\CC(O)CC/C=C\CCCCC(=O)O` (stereo not drawn) [γHYA, 10-hydroxy-cis-6,cis-12-octadecadienoic acid]: the “proliferation of Campylobacter jejuni ATCC33560 strain” value in experiment [3] is listed as “inhibited proliferation”. The “proliferation of Campylobacter coli ATCC33559 strain” value in experiment [4] is listed as “inhibited proliferation”.

For the molecule `CCCCCC[C@@H](O)C/C=C\CCCCCCCC(=O)O` [ricinoleic acid], in experiment [5], the “ED50 value, 15 hr later” value came out at 5 µg/mL (≈ 16.8 µM) and the “ED50 value, 25 hr later” value was found to be 0.5 µg/mL (≈ 1.68 µM).

As for `CCCCCCCCCCCCCCCCCC(=O)O` [stearic acid], in experiment [5], the “ED50 value, 15 hr later” value worked out at 500 µg/mL (≈ 1760 µM) and the “ED50 value, 25 hr later” value was above 500 µg/mL.

Consider `CCCCCCCC/C=C\CCCCCCCC(=O)O` [oleic acid], for which, in experiment [5], the “ED50 value, 15 hr later” value was determined as 50 µg/mL (≈ 177 µM) and the “ED50 value, 25 hr later” value was above 50 µg/mL.

For the molecule `CCCCC/C=C\C/C=C\CCCCCCCC(=O)O` [linoleic acid], in experiment [5], the “ED50 value, 15 hr later” value came out at 50 µg/mL (≈ 178 µM) and the “ED50 value, 25 hr later” value is 50 µg/mL (≈ 178 µM).
